From PMC8364686, “Safety, tolerability, pharmacokinetics and pharmacodynamics of single oral doses of BI 187004, an inhibitor of 11beta-hydroxysteroid dehydrogenase-1, in healthy male volunteers with overweight or obesity” (Clinical Diabetes and Endocrinology, 2021)

Assay: Plasma pharmacokinetics of BI 187004 after single oral doses (LC–MS/MS)
Settings: male, human, plasma, po; for concentration at 6 h: planned time 6 h; for concentration at 8 h: planned time 8 h; for concentration at 10 h: planned time 10 h; for concentration at 12 h: planned time 12 h; for concentration at 36 h: planned time 36 h; for concentration at 48 h: planned time 48 h; for concentration at 72 h: planned time 72 h; for concentration at 96 h: planned time 96 h; for concentration at 0.5 h: planned time 0.5 h; for concentration at 1 h: planned time 1 h; for concentration at 1.5 h: planned time 1.5 h; for concentration at 2 h: planned time 2 h; for concentration at 2.5 h: planned time 2.5 h; for concentration at 3 h: planned time 3 h; for concentration at 4 h: planned time 4 h; for concentration at 5 h: planned time 5 h
[1] = 20 mg, BI 187004 plasma concentrations, 20 mg single oral, gMean
[2] = 20 mg, BI 187004 plasma concentrations, 20 mg single oral, Max
[3] = 20 mg, BI 187004 plasma concentrations, 20 mg single oral, Mean
[4] = 20 mg, BI 187004 plasma concentrations, 20 mg single oral, Median
[5] = 20 mg, BI 187004 plasma concentrations, 20 mg single oral, Min
[6] = 40 mg, BI 187004 plasma concentrations, 40 mg single oral, Max
[7] = 40 mg, BI 187004 plasma concentrations, 40 mg single oral, Mean
[8] = 40 mg, BI 187004 plasma concentrations, 40 mg single oral, Median
[9] = 40 mg, BI 187004 plasma concentrations, 40 mg single oral, Min
[10] = 40 mg, BI 187004 plasma concentrations, 40 mg single oral, gMean
[11] = 40 mg, BI 187004 plasma concentrations, 40 mg single oral, individual subjects

`N#Cc1ccc2c(c1)[C@H]1CCCN(C(=O)c3ccc4[nH]cnc4c3)[C@H]1C2` [BI 187004] showed a concentration at 6 h [1] of 547 nM, a concentration at 8 h [2] of 645 nM and a concentration at 8 h [3] of 464 nM. For the same molecule, the concentration at 8 h [4] was 398 nM, the concentration at 8 h [5] was 354 nM and the concentration at 8 h [1] was 449 nM. The concentration at 8 h (20 mg, BI 187004 plasma concentrations, 20 mg single oral, individual subjects) was 645 nM, the concentration at 10 h [2] was 529 nM and the concentration at 10 h [3] was 398 nM. It also gave a concentration at 10 h [4] of 398 nM, a concentration at 10 h [5] of 253 nM and a concentration at 10 h [1] of 382 nM. For the same molecule, the concentration at 12 h [2] was 457 nM, the concentration at 12 h [3] was 331 nM and the concentration at 12 h [4] was 311 nM. For the same molecule, the concentration at 12 h [5] was 221 nM, the concentration at 12 h [1] was 316 nM and the concentration at 24 h (20 mg, BI 187004 plasma concentrations, 20 mg single oral, planned time 24 h, Max) was 353 nM. For the same molecule, the concentration at 24 h (20 mg, BI 187004 plasma concentrations, 20 mg single oral, planned time 24 h, Mean) was 187 nM, the concentration at 24 h (20 mg, BI 187004 plasma concentrations, 20 mg single oral, planned time 24 h, Median) was 155 nM and the concentration at 24 h (20 mg, BI 187004 plasma concentrations, 20 mg single oral, planned time 24 h, Min) was 85.8 nM. It also gave a concentration at 24 h (20 mg, BI 187004 plasma concentrations, 20 mg single oral, planned time 24 h, gMean) of 161 nM, a concentration at 36 h [2] of 145 nM and a concentration at 36 h [3] of 67.3 nM. For the same molecule, the concentration at 36 h [4] was 51.1 nM, the concentration at 36 h [5] was 27.8 nM and the concentration at 36 h [1] was 55.4 nM. For the same molecule, the concentration at 48 h [2] was 104 nM, the concentration at 48 h [3] was 45.6 nM and the concentration at 48 h [4] was 34.4 nM. For the same molecule, the concentration at 48 h [5] was 15.8 nM, the concentration at 48 h [1] was 35.9 nM and the concentration at 72 h [2] was 43.9 nM. The concentration at 72 h [3] was 20.5 nM, the concentration at 72 h [4] was 16.4 nM and the concentration at 72 h [5] was 6.98 nM. It also gave a concentration at 72 h [1] of 16.5 nM, a concentration at 96 h [2] of 18.2 nM and a concentration at 96 h [3] of 10.4 nM. For the same molecule, the concentration at 96 h [4] was 9.48 nM, the concentration at 96 h [5] was 5.78 nM and the concentration at 96 h [1] was 9.42 nM. For the same molecule, the concentration at 24 h (20 mg, C24 gMean (%gCV), 20 mg single oral dose) was 161 nM, the AUC(0-inf) (40 mg) was 25.9 µM·h and the AUC(0-t) (40 mg) was 19.9 µM·h. For the same molecule, the Cmax (40 mg) was 2210 nM, the Tmax (40 mg) was 1 h and the Vd/F (40 mg) was 123 L. The half-life (40 mg) was 18.9 h, the concentration at 0.5 h [6] was 2530 nM and the concentration at 0.5 h [7] was 1760 nM. For the same molecule, the concentration at 0.5 h [8] was 1980 nM, the concentration at 0.5 h [9] was 487 nM and the concentration at 0.5 h [10] was 1520 nM. For the same molecule, the concentration at 1 h [6] was 2820 nM, the concentration at 1 h [7] was 2170 nM and the concentration at 1 h [8] was 2410 nM. It also gave a concentration at 1 h [9] of 974 nM, a concentration at 1 h [10] of 2050 nM and a concentration at 1.5 h [6] of 2610 nM. For the same molecule, the concentration at 1.5 h [7] was 1950 nM, the concentration at 1.5 h [8] was 2160 nM and the concentration at 1.5 h [9] was 1020 nM. It also gave a concentration at 1.5 h [10] of 1870 nM, a concentration at 2 h [6] of 2410 nM and a concentration at 2 h [7] of 1760 nM. It also gave a concentration at 2 h [8] of 1860 nM, a concentration at 2 h [9] of 1040 nM and a concentration at 2 h [10] of 1700 nM. The concentration at 2.5 h [6] was 2180 nM, the concentration at 2.5 h [7] was 1750 nM and the concentration at 2.5 h [8] was 1870 nM. For the same molecule, the concentration at 2.5 h [9] was 1160 nM, the concentration at 2.5 h [10] was 1710 nM and the concentration at 2.5 h [11] was 2180 nM. The concentration at 3 h [6] was 1810 nM, the concentration at 3 h [7] was 1530 nM and the concentration at 3 h [8] was 1560 nM. It also gave a concentration at 3 h [9] of 1130 nM, a concentration at 3 h [10] of 1510 nM and a concentration at 3 h [11] of 1680 nM. The concentration at 4 h [6] was 1700 nM, the concentration at 4 h [7] was 1460 nM and the concentration at 4 h [8] was 1530 nM. The concentration at 4 h [9] was 1020 nM, the concentration at 4 h [10] was 1440 nM and the concentration at 4 h [11] was 1640 nM. For the same molecule, the concentration at 5 h [6] was 1610 nM, the concentration at 5 h [7] was 1320 nM and the concentration at 5 h [8] was 1350 nM. The concentration at 5 h [9] was 888 nM, the concentration at 5 h [10] was 1290 nM and the concentration at 5 h [11] was 1440 nM. It also gave a concentration at 6 h [6] of 1400 nM, a concentration at 6 h [7] of 1120 nM and a concentration at 6 h [8] of 1130 nM. It also gave a concentration at 6 h [9] of 736 nM, a concentration at 6 h [10] of 1090 nM and a concentration at 6 h [11] of 1230 nM. It also gave a concentration at 8 h [6] of 1190 nM, a concentration at 8 h [7] of 951 nM and a concentration at 8 h [8] of 987 nM. For the same molecule, the concentration at 8 h [9] was 606 nM, the concentration at 8 h [10] was 929 nM and the concentration at 8 h [11] was 1000 nM.
